Series [1] concerns the target Phosphatidylinositol 3-kinase catalytic subunit type 3 (Homo sapiens) (UniProt Q8NEB9). Conditions: Compound concentration 1000.0 nM; call rule not given here.
The target of series [2] is Alpha-2C adrenergic receptor (Homo sapiens) (UniProt P18825). Conditions: Compound concentration 10.0 uM.
Series [3] deals with Testis-specific serine/threonine-protein kinase 3 (Homo sapiens) (UniProt Q96PN8). Conditions: Compound concentration 1000.0 nM.
In series [4] the target is Calcium-dependent protein kinase 1 (Plasmodium falciparum) (UniProt P62344). Conditions: Compound concentration 1000.0 nM.
Calcium-dependent protein kinase 1 (Plasmodium falciparum), sequence (P62344 2-524 limits assumed): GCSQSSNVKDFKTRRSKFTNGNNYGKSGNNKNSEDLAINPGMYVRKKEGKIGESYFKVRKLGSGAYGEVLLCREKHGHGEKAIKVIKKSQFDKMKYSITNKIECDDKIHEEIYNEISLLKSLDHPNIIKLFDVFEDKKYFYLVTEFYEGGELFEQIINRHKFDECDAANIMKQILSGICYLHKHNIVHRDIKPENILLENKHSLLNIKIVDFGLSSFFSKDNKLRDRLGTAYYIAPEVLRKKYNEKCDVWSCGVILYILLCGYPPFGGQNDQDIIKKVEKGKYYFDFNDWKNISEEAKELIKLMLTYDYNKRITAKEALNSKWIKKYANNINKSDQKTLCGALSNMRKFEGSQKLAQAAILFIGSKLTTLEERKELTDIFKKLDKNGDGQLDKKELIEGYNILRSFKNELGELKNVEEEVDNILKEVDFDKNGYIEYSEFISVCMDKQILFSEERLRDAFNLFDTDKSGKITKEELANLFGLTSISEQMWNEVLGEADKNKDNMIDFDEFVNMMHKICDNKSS
Series [5] deals with Mast/stem cell growth factor receptor Kit (Homo sapiens), P10721 [D816H]. Conditions: Compound concentration 1000.0 nM.
Mast/stem cell growth factor receptor Kit (Homo sapiens), P10721 [D816H], sequence (P10721 whole entry D816H): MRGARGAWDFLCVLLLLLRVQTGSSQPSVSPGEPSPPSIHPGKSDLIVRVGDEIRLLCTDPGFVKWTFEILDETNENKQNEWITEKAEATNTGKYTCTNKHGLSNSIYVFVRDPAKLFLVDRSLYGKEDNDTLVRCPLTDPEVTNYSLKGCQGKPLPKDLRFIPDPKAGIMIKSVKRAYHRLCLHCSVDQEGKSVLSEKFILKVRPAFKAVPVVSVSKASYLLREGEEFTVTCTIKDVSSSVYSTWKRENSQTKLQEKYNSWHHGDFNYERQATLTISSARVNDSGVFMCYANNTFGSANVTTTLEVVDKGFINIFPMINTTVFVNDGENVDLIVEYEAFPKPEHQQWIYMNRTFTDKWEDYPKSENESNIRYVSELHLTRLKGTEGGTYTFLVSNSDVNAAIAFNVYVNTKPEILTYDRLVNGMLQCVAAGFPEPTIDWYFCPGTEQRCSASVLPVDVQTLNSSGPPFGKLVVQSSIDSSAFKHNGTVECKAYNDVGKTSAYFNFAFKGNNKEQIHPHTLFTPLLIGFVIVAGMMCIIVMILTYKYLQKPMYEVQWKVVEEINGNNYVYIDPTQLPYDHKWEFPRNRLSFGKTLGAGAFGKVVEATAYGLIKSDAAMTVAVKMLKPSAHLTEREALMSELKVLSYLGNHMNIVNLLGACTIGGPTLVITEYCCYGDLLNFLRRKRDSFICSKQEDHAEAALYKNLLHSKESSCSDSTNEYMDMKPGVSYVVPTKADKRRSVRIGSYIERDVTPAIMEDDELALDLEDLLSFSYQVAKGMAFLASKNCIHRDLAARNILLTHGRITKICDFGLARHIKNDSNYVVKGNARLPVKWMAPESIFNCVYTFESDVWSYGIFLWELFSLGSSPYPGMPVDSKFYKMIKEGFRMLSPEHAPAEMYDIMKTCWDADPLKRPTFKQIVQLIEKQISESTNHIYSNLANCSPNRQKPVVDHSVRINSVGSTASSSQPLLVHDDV
Series [6] has as its target Serine/threonine-protein kinase 35 (Homo sapiens) (UniProt Q8TDR2). Conditions: Compound concentration 1000.0 nM.
Series [7] has as its target 5-hydroxytryptamine receptor 1D (Homo sapiens) (UniProt P28221). Conditions: Compound concentration 10.0 uM.
Series [8] has as its target 5-hydroxytryptamine receptor 1E (Homo sapiens) (UniProt P28566). Conditions: Compound concentration 10.0 uM.
Series [9] concerns the target Voltage-dependent L-type calcium channel subunit alpha-1C (diltiazem site) (Rattus norvegicus, UniProt P22002). The series can be described thus: CA+/DILSI/RA Eurofins-Panlabs selectivity data (BI). Conditions: compound concentration 10 uM, read-out: % Ctrl.
Series [10] addresses Sodium channel alpha subunit (site 2) (Homo sapiens, UniProt P35498+P35499+Q01118+Q14524+Q15858+Q99250+Q9NY46+Q9UI33+Q9UQD0+Q9Y5Y9). Description: NA+/SITE2ATG Eurofins-Panlabs selectivity data (BI). Type of series: protein assay, Cavia porcellus. Details: mode of action antagonist. Conditions: guinea pig; compound concentration 30 uM; read-out: % Ctrl.
In series [11] the target is Nicotinic acetylcholine receptor alpha-1/beta-1 (Homo sapiens) (UniProt P02708+P11230). The series can be described thus: NACH_BS_N/H Eurofins-Panlabs selectivity data (BI). Type of series: protein-complex assay. Conditions: Compound concentration 10.0 uM.
The target in series [12] is Pyroglutamylated RF-amide peptide receptor (Homo sapiens) (UniProt Q96P65). The series can be described thus: GPR103 Eurofins-Panlabs selectivity data (BI). Conditions: Compound concentration 10.0 uM.
Series [13] deals with B1 bradykinin receptor (Homo sapiens) (UniProt P46663). Description: B1/H Eurofins-Panlabs selectivity data (BI). Conditions: Compound concentration 10.0 uM.
For series [14], the target named is Kappa-type opioid receptor (Homo sapiens) (UniProt P41145). Conditions: Compound concentration 10.0 uM.
Kappa-type opioid receptor (Homo sapiens), sequence (P41145 whole entry): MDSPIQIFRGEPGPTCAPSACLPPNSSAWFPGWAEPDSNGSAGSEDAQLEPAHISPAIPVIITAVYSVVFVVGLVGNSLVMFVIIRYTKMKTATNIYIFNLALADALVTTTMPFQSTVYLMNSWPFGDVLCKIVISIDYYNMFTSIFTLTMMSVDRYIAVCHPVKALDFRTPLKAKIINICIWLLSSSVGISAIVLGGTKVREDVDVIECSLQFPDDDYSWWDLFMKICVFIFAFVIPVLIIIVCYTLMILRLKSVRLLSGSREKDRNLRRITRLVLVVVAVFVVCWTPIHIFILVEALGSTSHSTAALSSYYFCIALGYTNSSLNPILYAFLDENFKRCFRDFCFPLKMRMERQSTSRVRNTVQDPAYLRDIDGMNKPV
The target of series [15] is Substance-P receptor (Homo sapiens) (UniProt P25103). The series can be described thus: NK1/HU Eurofins-Panlabs selectivity data (BI). Conditions: Compound concentration 10.0 uM.
The target of series [16] is Beta-1 adrenergic receptor (Homo sapiens) (UniProt P08588). Description: BETA1/HU Eurofins-Panlabs selectivity data (BI). Conditions: Compound concentration 10.0 uM.
In series [17] the target is Prostaglandin E2 receptor EP4 subtype (Homo sapiens) (UniProt P35408). Description: EP4/H Eurofins-Panlabs selectivity data (BI). Conditions: Compound concentration 10.0 uM.
Series [18] addresses Sigma non-opioid intracellular receptor 1 (Homo sapiens) (UniProt Q99720). The series can be described thus: SIGMA1/HU Eurofins-Panlabs selectivity data (BI). Conditions: Compound concentration 10.0 uM.
Series [19] addresses Glutamate receptor ionotropic, NMDA 2A (Rattus norvegicus) (UniProt Q00959). Conditions: Compound concentration 10.0 uM.
The target of series [20] is Neuropeptide Y receptor type 2 (Homo sapiens) (UniProt P49146). Description: Y2/HU Eurofins-Panlabs selectivity data (BI). Conditions: Compound concentration 10.0 uM.
The target in series [21] is T1, Alpha-1D adrenergic receptor (Homo sapiens) (UniProt P25100).
T1 sequence (whole entry): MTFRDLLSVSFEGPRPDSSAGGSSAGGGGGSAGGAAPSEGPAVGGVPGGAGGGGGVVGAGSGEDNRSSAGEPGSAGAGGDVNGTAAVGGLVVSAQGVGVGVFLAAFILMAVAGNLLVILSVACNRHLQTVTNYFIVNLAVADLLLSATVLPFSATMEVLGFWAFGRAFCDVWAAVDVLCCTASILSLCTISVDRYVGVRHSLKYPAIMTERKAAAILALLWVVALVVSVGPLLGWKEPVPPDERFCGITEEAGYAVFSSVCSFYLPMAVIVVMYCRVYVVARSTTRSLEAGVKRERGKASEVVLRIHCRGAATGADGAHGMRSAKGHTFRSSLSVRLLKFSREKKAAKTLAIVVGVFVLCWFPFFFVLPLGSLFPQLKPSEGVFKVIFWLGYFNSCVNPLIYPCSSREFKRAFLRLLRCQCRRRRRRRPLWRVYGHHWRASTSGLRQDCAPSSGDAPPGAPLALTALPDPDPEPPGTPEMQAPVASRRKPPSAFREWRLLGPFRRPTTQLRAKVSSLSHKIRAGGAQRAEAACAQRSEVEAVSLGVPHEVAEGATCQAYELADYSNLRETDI
The series can be described thus: ALPHA1D/H Eurofins-Panlabs selectivity data (BI). Conditions: Compound concentration 10.0 uM.

The target in series [22] is T2, D(4) dopamine receptor (Homo sapiens) (UniProt P21917).
T2 sequence (whole entry): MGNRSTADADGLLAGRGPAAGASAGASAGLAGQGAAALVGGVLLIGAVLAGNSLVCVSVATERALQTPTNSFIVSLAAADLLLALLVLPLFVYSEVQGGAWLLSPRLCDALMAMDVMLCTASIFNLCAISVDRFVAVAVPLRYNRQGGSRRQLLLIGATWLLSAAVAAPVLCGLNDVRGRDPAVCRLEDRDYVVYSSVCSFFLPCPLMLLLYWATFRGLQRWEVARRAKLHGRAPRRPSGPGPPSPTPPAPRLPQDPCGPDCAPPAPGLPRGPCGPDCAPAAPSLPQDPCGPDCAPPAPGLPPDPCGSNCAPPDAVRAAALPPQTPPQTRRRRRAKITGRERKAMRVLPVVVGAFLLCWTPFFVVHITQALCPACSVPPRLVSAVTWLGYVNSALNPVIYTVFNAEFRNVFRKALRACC
Description: D4.2/H Eurofins-Panlabs selectivity data (BI). Conditions: Compound concentration 10.0 uM.

The target in series [23] is 3',5'-cyclic-AMP phosphodiesterase 4A (Rattus norvegicus) (UniProt P54748). Description: ROLIPRAM/R Eurofins-Panlabs selectivity data (BI). Conditions: Compound concentration 10.0 uM.
In series [24] the target is Endothelin receptor type B (Homo sapiens) (UniProt P24530). Description: ETB/HUM Eurofins-Panlabs selectivity data (BI). Conditions: Compound concentration 10.0 uM.
Series [25] addresses Glutamate NMDA receptor (Rattus norvegicus) (UniProt P35439+Q00959+Q00960+Q00961+Q62645+Q8VHN2+Q9R1M7). Description: NMDAAGSI/RA Eurofins-Panlabs selectivity data (BI). Type of series: protein-complex assay. Conditions: filed as agonist, Compound concentration 10.0 uM.
The target of series [26] is Kappa-type opioid receptor (Homo sapiens) (UniProt P41145). Description: KAPPA/HU Eurofins-Panlabs selectivity data (BI). Conditions: Compound concentration 10.0 uM.
The target in series [27] is Sodium-dependent noradrenaline transporter (Homo sapiens) (UniProt P23975). The series can be described thus: NETRANS/H Eurofins-Panlabs selectivity data (BI). Conditions: Compound concentration 10.0 uM.
Series [28] has as its target 5-hydroxytryptamine receptor 1A (Homo sapiens) (UniProt P08908). Conditions: Compound concentration 10.0 uM.
Series [29] has the same target. Description: 5HT1A/HU Eurofins-Panlabs selectivity data (BI). Conditions: Compound concentration 10.0 uM.

Testis-specific serine/threonine-protein kinase 3 (Homo sapiens), sequence (Q96PN8 whole entry): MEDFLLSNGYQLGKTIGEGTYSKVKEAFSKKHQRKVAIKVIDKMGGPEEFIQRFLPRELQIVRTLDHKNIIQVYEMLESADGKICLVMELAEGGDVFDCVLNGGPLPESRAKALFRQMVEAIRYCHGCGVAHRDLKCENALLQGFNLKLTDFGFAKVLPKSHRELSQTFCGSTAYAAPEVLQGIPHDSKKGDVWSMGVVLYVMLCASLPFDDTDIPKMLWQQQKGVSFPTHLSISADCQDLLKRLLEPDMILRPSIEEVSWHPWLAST
Serine/threonine-protein kinase 35 (Homo sapiens), sequence (Q8TDR2 whole entry): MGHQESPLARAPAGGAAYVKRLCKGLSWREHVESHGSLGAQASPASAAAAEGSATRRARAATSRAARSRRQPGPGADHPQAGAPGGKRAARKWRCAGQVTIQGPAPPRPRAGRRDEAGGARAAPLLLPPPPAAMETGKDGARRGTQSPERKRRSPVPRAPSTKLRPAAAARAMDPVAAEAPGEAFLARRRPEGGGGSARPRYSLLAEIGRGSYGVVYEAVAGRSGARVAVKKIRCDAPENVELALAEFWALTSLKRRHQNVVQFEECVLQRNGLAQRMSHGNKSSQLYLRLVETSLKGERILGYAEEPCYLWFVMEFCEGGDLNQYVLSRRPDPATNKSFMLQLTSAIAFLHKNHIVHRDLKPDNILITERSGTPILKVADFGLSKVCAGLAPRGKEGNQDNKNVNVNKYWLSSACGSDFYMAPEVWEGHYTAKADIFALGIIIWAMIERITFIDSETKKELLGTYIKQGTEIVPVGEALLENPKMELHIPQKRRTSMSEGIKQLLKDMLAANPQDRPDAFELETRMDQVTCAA
Phosphatidylinositol 3-kinase catalytic subunit type 3 (Homo sapiens), sequence (Q8NEB9 whole entry): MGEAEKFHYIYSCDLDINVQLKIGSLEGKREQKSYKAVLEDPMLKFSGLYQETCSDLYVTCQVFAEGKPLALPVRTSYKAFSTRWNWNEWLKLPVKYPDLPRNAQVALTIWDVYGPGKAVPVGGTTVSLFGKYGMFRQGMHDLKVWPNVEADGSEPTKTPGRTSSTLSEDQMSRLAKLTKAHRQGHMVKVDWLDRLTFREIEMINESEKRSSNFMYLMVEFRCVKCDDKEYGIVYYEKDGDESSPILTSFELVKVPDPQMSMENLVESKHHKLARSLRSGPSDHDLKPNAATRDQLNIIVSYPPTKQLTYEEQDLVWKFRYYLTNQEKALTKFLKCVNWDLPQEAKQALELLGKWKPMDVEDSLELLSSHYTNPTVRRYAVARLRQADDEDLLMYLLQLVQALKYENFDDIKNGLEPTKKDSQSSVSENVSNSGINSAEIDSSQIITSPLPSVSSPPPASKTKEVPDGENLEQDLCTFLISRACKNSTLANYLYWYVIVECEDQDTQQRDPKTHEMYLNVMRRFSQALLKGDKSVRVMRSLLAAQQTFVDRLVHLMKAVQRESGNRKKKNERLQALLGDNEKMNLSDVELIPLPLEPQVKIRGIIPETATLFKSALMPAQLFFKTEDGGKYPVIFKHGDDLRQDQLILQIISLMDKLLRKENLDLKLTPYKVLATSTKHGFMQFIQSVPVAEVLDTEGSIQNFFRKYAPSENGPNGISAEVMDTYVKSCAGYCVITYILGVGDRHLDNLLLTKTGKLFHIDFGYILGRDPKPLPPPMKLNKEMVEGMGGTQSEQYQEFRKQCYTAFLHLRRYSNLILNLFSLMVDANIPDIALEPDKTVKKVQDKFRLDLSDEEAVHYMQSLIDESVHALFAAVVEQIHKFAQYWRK
5-hydroxytryptamine receptor 1D (Homo sapiens), sequence (P28221 whole entry): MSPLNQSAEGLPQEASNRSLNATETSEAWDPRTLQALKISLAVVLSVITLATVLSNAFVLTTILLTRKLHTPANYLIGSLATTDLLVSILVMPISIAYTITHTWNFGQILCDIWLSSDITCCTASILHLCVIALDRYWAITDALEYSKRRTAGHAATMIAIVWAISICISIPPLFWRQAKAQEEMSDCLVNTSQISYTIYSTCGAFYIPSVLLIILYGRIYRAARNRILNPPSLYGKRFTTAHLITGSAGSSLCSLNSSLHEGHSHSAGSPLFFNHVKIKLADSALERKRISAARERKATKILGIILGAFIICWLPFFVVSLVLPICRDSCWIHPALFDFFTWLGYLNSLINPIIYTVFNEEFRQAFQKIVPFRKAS
Alpha-2C adrenergic receptor (Homo sapiens), sequence (P18825 whole entry): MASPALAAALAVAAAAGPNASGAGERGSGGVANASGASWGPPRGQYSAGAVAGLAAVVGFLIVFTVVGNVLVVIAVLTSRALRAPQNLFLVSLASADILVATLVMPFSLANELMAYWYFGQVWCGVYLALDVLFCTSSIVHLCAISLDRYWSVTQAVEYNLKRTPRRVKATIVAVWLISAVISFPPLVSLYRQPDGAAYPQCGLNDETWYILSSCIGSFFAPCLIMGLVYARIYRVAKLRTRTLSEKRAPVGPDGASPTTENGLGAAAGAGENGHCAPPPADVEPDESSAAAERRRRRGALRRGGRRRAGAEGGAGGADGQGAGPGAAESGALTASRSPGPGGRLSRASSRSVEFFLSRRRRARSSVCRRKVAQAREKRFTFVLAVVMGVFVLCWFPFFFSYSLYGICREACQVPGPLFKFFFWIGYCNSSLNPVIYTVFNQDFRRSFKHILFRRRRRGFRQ
5-hydroxytryptamine receptor 1A (Homo sapiens), sequence (P08908 whole entry): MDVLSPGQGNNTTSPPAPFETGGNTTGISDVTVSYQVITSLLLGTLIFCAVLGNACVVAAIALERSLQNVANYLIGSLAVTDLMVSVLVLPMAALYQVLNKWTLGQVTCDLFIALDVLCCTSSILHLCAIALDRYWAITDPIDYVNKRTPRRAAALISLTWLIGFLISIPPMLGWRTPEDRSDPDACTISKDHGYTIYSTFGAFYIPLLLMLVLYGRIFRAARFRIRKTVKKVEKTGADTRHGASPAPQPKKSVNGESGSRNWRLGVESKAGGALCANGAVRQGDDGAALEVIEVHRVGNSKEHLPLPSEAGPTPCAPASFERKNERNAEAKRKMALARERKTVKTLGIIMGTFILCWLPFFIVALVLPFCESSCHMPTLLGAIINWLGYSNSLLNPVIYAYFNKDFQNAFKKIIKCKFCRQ

As to `CC(=O)N1CCC(c2ccc(C(=O)NC3=NCCN3)cc2C(F)(F)F)CC1` [BI 0054], the residual activity was 88% in [1]; 100% in series [3]; 90% in series [4]; 97% in series [5]; 100% in series [6]. Moreover, the inhibition was 16.3% in series [2] and 9.64% in [7].
As to `CC(=O)N1CCC(c2ccc(C(=O)NC(=N)N)cc2C(F)(F)F)CC1` [BI 9627], the inhibition in [8] was -9.59%; in series [14], 9.26%; in series [2], 9.12%; in series [28] it was -5.21%; in series [7], 34%. The activity at 10 µM in series [9] is listed as 68% (not active). Moreover, the activity at 30 µM in series [10] was 100% (not active). The residual activity was 100% in [1]; 100% in series [11]; 92% in series [12]; 97% in series [13]; 100% in series [15]; 102% in series [16]. The residual activity is 100% in series [3]; 99% in [17]; 114% in series [18]; 96% in series [19]; 103% in [20]; 87% in [4]. Moreover, the residual activity in series [21] was 98%; in [22], 105%; in series [5], 100%; in [23], 92%; in series [24] it was 114%; in series [25] it was 90%. For the same compound, the residual activity in series [26] is 74%; in [27], 91%; in [6] it was 100%; in series [29] it was 82%.

One may read the inhibition as the relative decrease from the control value, in per cent.

Values taken from ChEMBL document CHEMBL4507279, “Data for DCP probe BI-9627” (2021).
